According to ChEMBL document CHEMBL3407452, “Linear and branched alkyl-esters and amides of gallic acid and other (mono-, di- and tri-) hydroxy benzoyl derivatives as promising anti-HCV inhibitors” (Eur J Med Chem, 2015):
The source made the active and inactive calls. The calls are words filed in the database; no cut-off is given here.

Columns and labels:
[1] = tested on: Human immunodeficiency virus 1; assay: Antiviral activity against HIV1 3B infected in human CEM cells assessed as reduction in virus-induced cytopathicity after 4 to 5 days by microscopy based syncytium cell formation assay; assay type: functional, organism-based, CCRF-CEM; conditions: Human immunodeficiency virus 1, 3B, CCRF-CEM; read-out: EC50
[2] = tested on: Human immunodeficiency virus 2; assay: Antiviral activity against HIV2 ROD infected in human CEM cells assessed as reduction in virus-induced cytopathicity after 4 to 5 days by microscopy based syncytium cell formation assay; assay type: functional, organism-based, ISOLATE ROD, CCRF-CEM; conditions: Human immunodeficiency virus 2, ISOLATE ROD, CCRF-CEM; read-out: EC50
[3] = Cytotoxicity against human CEM cells assessed as inhibition of cell proliferation; assay type: cell-based; conditions: CEM cells (CCRF-CEM)
Hepatitis C virus = assay: Antiviral activity against HCV genotype 1b I389luc-ubi-neo/NS3-3'/5.1 replicons infected in human Huh5-2 HCV subgenomic replicon-containing cells assessed as reduction in virus replication after 3 days by luciferase reporter gene assay; assay type: functional, Hepacivirus hominis; conditions: Hepatitis C virus, genotype 1b, Huh-5-2, 72 h; for EC50: read-out: EC50
[4] = Cytotoxicity against human Huh5-2 cells after 72 hrs by MTS assay; assay type: cell-based, Huh-5-2
[5] = Selectivity index, ratio of CC50 for human Huh5-2 cells to EC50 for HCV genotype 1b; set-up: species or system Huh-5-2
Vaccinia virus = assay: Antiviral activity against vaccinia virus; assay type: functional, organism-based; conditions: Orthopoxvirus vaccinia
[6] = tested on: Vesicular stomatitis virus; assay: Antiviral activity against vesicular stomatitis virus; assay type: functional, organism-based
Coxsackievirus B4 = assay: Antiviral activity against human coxsackievirus B4; assay type: functional, organism-based
[7] = tested on: Respiratory syncytial virus; assay: Antiviral activity against RSV; assay type: functional, organism-based
Human respirovirus 3 = assay: Antiviral activity against human parainfluenza virus 3; assay type: functional, organism-based
Reovirus sp. = assay: Antiviral activity against reovirus; assay type: functional, organism-based
Sindbis virus = assay: Antiviral activity against sindbis virus; assay type: functional, organism-based
Influenza A virus H3N2 = assay: Antiviral activity against influenza A virus H3N2; assay type: functional, organism-based
Influenza A virus = assay: Antiviral activity against influenza A virus (H1N1); assay type: functional, organism-based
Punta Toro virus = assay: Antiviral activity against punta toro virus; assay type: functional, organism-based
Feline coronavirus = assay: Antiviral activity against feline coronavirus; assay type: functional, organism-based
Felid alphaherpesvirus 1 = assay: Antiviral activity against feline herpesvirus; assay type: functional, organism-based
Chikungunya virus = assay: Antiviral activity against chikungunya virus; assay type: functional
[8] = Selectivity index, ratio of CC50 for human CEM cells to EC50 for HIV1 3B; assay type: toxicity, cell-based, CCRF-CEM; conditions: read-out: Ratio CC50/EC50

| Compound | EC50 [1] | EC50 [2] | CC50 [3] | EC90 (Hepatitis C virus) | EC50 (Hepatitis C virus) | CC50 at 72 h [4] | Ratio CC50/EC50 [5] | Activity (Vaccinia virus) | Activity [6] | Activity (Coxsackievirus B4) | Activity [7] | Activity (Human respirovirus 3) | Activity (Reovirus sp.) | Activity (Sindbis virus) | Activity (Influenza A virus H3N2) | Activity (Influenza A virus) | Activity (Punta Toro virus) | Activity (Feline coronavirus) | Activity (Felid alphaherpesvirus 1) | Activity (Chikungunya virus) | further results |
| --- | --- | --- | --- | --- | --- | --- | --- | --- | --- | --- | --- | --- | --- | --- | --- | --- | --- | --- | --- | --- | --- |
| CCCCCCCCCCCCOC(=O)c1cc(O)c(O)c(O)c1 [DODECYL GALLATE] | ≥ 1 µM | ≥ 1 µM | 2.8 µM | 1.8 µM | 0.4 µM | 8.9 µM | >22 | inactive | inactive | inactive | inactive | inactive | inactive | inactive | inactive | inactive | inactive | inactive | inactive | inactive | – |
| O=C(NCCCCN(CCCNC(=O)c1ccc(O)c(O)c1O)C(=O)c1ccc(O)c(O)c1O)c1ccc(O)c(O)c1O | 2.6 µM | > 10 µM | 27 µM | > 50 µM | 34 µM | > 50 µM | – | inactive | inactive | inactive | inactive | inactive | inactive | inactive | inactive | inactive | inactive | inactive | inactive | inactive | selectivity ratio [8]: 10 |
| O=C(NCCN(CCN(CCN(CCNC(=O)c1cc(O)c(O)c(O)c1)C(=O)c1cc(O)c(O)c(O)c1)C(=O)c1cc(O)c(O)c(O)c1)C(=O)c1cc(O)c(O)c(O)c1)c1cc(O)c(O)c(O)c1 | 4.9 µM | > 10 µM | 21 µM | > 50 µM | 34 µM | > 50 µM | – | inactive | inactive | inactive | inactive | inactive | inactive | inactive | inactive | inactive | inactive | inactive | inactive | inactive | selectivity ratio [8]: 4 |
| O=C(OCCCCCCCCCCCCOC(=O)c1cc(O)c(O)c(O)c1)c1cc(O)c(O)c(O)c1 | 4.6 µM | > 10 µM | 4.7 µM | 37 µM | 6.5 µM | > 50 µM | >7 | inactive | inactive | inactive | inactive | inactive | inactive | inactive | inactive | inactive | inactive | inactive | inactive | inactive | – |
